pEC50: −log10 of the molar value. Calls of active or inactive are those of the source. No cut-off for these calls is given here.
Experiments:
[1] = target: T1, Peroxisome proliferator-activated receptor gamma (Homo sapiens) (UniProt P37231); assay: Agonist activity at GAL4N fused human PPARgamma LBD expressed in HEK293 cells co-expressing TK-MH100x4-Luc after 24 hrs by luciferase reporter gene assay relative to rosiglitazone; assay type: cell-based
T1 sequence (whole entry): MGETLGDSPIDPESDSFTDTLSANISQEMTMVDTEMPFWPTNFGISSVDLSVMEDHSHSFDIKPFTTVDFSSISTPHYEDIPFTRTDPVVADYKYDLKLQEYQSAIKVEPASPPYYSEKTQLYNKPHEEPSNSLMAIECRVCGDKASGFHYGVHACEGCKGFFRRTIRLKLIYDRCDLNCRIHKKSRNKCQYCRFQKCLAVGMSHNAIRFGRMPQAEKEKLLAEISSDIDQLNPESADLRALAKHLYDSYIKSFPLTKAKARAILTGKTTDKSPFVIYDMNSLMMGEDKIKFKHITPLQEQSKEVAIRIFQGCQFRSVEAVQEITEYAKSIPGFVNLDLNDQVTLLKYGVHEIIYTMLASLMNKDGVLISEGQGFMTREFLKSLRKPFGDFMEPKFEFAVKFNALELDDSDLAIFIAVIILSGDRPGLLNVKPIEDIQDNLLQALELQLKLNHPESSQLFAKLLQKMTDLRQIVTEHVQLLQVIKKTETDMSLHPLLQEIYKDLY

[2] = target: T2, Peroxisome proliferator-activated receptor alpha (Homo sapiens) (UniProt Q07869); assay: Agonist activity at GAL4N fused human PPARalpha LBD expressed in HEK293 cells co-expressing TK-MH100x4-Luc after 24 hrs by luciferase reporter gene assay relative to GW7647; assay type: cell-based
T2 sequence (whole entry): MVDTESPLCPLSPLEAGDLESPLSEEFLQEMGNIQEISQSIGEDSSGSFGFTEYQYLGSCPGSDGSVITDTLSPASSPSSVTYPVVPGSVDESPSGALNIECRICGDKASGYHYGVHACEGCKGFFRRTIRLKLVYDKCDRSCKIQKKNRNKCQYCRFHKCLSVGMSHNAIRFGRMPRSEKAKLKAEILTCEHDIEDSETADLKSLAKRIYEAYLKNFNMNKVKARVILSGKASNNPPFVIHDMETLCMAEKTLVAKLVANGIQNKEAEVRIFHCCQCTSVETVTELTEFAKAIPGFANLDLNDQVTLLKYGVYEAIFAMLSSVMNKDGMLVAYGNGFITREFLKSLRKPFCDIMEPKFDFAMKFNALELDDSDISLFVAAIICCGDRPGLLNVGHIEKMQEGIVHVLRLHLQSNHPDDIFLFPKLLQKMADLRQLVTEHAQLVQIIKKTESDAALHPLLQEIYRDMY

[3] = target: T3, Peroxisome proliferator-activated receptor delta (Homo sapiens) (UniProt Q03181); assay: Agonist activity at GAL4N fused human PPARdelta LBD expressed in HEK293 cells co-expressing TK-MH100x4-Luc at 50 uM after 24 hrs by luciferase reporter gene assay relative to control; assay type: cell-based
T3 sequence (whole entry): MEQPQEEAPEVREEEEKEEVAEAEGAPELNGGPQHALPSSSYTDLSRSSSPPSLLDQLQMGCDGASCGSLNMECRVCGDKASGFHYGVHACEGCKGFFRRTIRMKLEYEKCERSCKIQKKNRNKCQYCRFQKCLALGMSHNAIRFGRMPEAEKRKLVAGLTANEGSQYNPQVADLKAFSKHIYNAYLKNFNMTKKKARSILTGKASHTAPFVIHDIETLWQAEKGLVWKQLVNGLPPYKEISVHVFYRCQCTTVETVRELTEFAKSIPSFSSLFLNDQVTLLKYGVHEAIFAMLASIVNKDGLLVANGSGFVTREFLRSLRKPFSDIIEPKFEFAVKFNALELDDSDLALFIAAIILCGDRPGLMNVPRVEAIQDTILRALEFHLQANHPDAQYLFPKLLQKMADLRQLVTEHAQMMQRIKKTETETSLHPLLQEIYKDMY

[4] = target: T4, Peroxisome proliferator-activated receptor alpha (Homo sapiens, UniProt Q07869); assay: Agonist activity at GAL4N fused human PPARalpha LBD expressed in HEK293 cells co-expressing TK-MH100x4-Luc after 24 hrs by luciferase reporter gene assay; assay type: cell-based
T4 sequence (Q07869 whole entry): T2 sequence (whole entry)

[5] = target: T5, Peroxisome proliferator-activated receptor alpha (Mus musculus, UniProt P23204); assay: Agonist activity at 3' GAL4 DNA binding domain fused mouse PPARalpha LBD expressed in U-2 OS cells after 40 hrs by luciferase reporter gene assay; assay type: cell-based
T5 sequence (P23204 whole entry): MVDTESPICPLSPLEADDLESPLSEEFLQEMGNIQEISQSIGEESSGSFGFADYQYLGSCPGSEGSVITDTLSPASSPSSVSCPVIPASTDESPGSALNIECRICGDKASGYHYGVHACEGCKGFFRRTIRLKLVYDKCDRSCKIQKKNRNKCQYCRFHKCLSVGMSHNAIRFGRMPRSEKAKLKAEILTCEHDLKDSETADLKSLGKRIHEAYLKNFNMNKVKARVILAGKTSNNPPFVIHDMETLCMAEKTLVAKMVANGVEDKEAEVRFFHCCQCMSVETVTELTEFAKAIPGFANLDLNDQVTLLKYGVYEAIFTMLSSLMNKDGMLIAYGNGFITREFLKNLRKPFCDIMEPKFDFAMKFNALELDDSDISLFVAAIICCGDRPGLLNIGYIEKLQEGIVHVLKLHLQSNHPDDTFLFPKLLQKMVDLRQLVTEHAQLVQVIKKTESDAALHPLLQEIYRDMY

[6] = target: T6, Peroxisome proliferator-activated receptor gamma (Homo sapiens, UniProt P37231); assay: Agonist activity at GAL4N fused human PPARgamma LBD expressed in HEK293 cells co-expressing TK-MH100x4-Luc after 24 hrs by luciferase reporter gene assay; assay type: cell-based
T6 sequence (P37231 whole entry): T1 sequence (whole entry)

[7] = target: T7, Peroxisome proliferator-activated receptor delta (Homo sapiens, UniProt Q03181); assay: Agonist activity at GAL4N fused human PPARdelta LBD expressed in HEK293 cells co-expressing TK-MH100x4-Luc after 24 hrs by luciferase reporter gene assay; assay type: cell-based
T7 sequence (Q03181 whole entry): T3 sequence (whole entry)

[8] = target: T1, Peroxisome proliferator-activated receptor gamma (Homo sapiens); assay: Agonist activity at GAL4N fused human PPARgamma LBD expressed in HEK293 cells co-expressing TK-MH100x4-Luc at less than 30 uM after 24 hrs by luciferase reporter gene assay; assay type: cell-based
[9] = target: T3, Peroxisome proliferator-activated receptor delta (Homo sapiens); assay: Agonist activity at GAL4N fused human PPARdelta LBD expressed in HEK293 cells co-expressing TK-MH100x4-Luc after 24 hrs by luciferase reporter gene assay relative to GW501516; assay type: cell-based
[10] = target: T3, Peroxisome proliferator-activated receptor delta (Homo sapiens); assay: Agonist activity at GAL4N fused human PPARdelta LBD expressed in HEK293 cells co-expressing TK-MH100x4-Luc at less than 30 uM after 24 hrs by luciferase reporter gene assay; assay type: cell-based
[11] = target: T2, Peroxisome proliferator-activated receptor alpha (Homo sapiens); assay: Agonist activity at GAL4N fused human PPARalpha LBD expressed in HEK293 cells co-expressing TK-MH100x4-Luc at less than 30 uM after 24 hrs by luciferase reporter gene assay; assay type: cell-based
[12] = target: T4, Peroxisome proliferator-activated receptor alpha

SMILES | Efficacy [1] [%] | Efficacy [2] [%] | Efficacy [3] [%] | pEC50 [4] | pEC50 [5] | pEC50 [6] | pEC50 [7] | Activity [8] | Efficacy [9] [%] | Activity [10] | Activity [11] | pEC50 [12]
CCO[C@@H](Cc1ccc(OCCc2ccc(OS(C)(=O)=O)cc2)cc1)C(=O)O [TESAGLITAZAR] | 119 to 130 | 122 to 186 | 38 | 5.42 | 5.77 | 6.44 | – | – | – | – | – | –
CC(=O)NC(C)c1nc(-c2ccc(OCCc3ccc(OS(C)(=O)=O)cc3)cc2)no1 (stereo unspecified) | – | 13 to 37 | – | 5.92 | – | – | 5.80 | inactive | 7 to 18 | – | – | –
CC(=O)N[C@@H](C)c1nc(-c2ccc(OCCc3ccc(OS(C)(=O)=O)cc3)cc2)no1 | – | 13 to 33 | – | 6.35 | – | – | 6.00 | inactive | 4 to 19 | – | – | –
CC(=O)N[C@H](C)c1nc(-c2ccc(OCCc3ccc(OS(C)(=O)=O)cc3)cc2)no1 | – | – | – | – | – | – | – | inactive | – | inactive | inactive | –
CC(=O)NC(C)c1nc(-c2ccc(OCCCOc3ccc(Oc4ccccc4)cc3)cc2)no1 (stereo unspecified) | – | 17 to 27 | – | 6.62 | – | – | 6.49 | inactive | 2 to 11 | – | – | –
CC(=O)NC(C)c1nc(-c2ccc(OCCN3c4ccccc4Oc4ccccc43)cc2)no1 (stereo unspecified) | – | 7 to 17 | – | 6.33 | – | – | 6.35 | inactive | 2 to 9 | – | – | –
CCOC(Cc1ccc(Oc2ccc(OCc3ccccc3)cc2)cc1)C(=O)O (stereo unspecified) | 39 to 51 | 87 to 129 | – | 5.27 | – | 4.74 | 4.51 | – | 16 to 45 | – | – | –
CC(=O)NC(C)c1nc(-c2ccc(OCC=C(c3ccc(Br)cc3)c3ccc(Br)cc3)cc2)no1 (stereo unspecified) | – | 3 to 15 | – | 6.06 | – | – | 6.01 | inactive | 5 to 14 | – | – | –
CCO[C@@H](Cc1ccc(OCCN2c3ccccc3Oc3ccccc32)cc1)C(=O)O [RAGAGLITAZAR] | – | – | – | – | – | – | – | – | – | – | – | 5.55

From ChEMBL document CHEMBL4020785, “Switching subtype-selectivity: Fragment replacement strategy affords novel class of peroxisome proliferator-activated receptor α/δ (PPARα/δ) dual agonists” (Bioorg Med Chem Lett, 2017)
